The results in this text go back to BindingDB's records for patent WO2025049746 (Eikon Therapeutics, 2025).

For experiment [1], the target named is T1, Bifunctional 3'-5' exonuclease/ATP-dependent helicase WRN [480-1251] (UniProt Q14191).
T1 construct: 480-1251
The experiment in a line: Biochemical Activity Assays. The method, then: The pure fractions were pooled and desalted/buffer exchanged into storage buffer using a HiTrap desalting column. […] First, WRN alone was pre-incubated with DMSO or compound of interest for 15 minutes. To initiate the reaction, ATP, dsDNA substrate, and ssDNA competitor (ssDNA_comp: […]) were added and incubated at room temperature for 20 minutes at which point DNA unwinding activity was monitored by measuring Cy3 fluorescence. After obtaining the reading, the ATPase activity was measured using the ADP-Glo Kinase Assay following the manufacturers recommended protocol. […] Compounds were assayed in a 10-point dose response in duplicate at a 1% DMSO final assay concentration.

Experiment [2] addresses Bifunctional 3'-5' exonuclease/ATP-dependent helicase WRN (Homo sapiens, UniProt Q14191). Briefly: ADP-Glo Kinase Assay. How it is done: ATPase activity was measured using the ADP-Glo Kinase Assay following the manufacturers recommended protocol.
For orientation: In ADP-Glo the light output rises with the ADP produced.

SMILES strings stand for the structures.

Sequence of Bifunctional 3'-5' exonuclease/ATP-dependent helicase WRN (Q14191 whole entry): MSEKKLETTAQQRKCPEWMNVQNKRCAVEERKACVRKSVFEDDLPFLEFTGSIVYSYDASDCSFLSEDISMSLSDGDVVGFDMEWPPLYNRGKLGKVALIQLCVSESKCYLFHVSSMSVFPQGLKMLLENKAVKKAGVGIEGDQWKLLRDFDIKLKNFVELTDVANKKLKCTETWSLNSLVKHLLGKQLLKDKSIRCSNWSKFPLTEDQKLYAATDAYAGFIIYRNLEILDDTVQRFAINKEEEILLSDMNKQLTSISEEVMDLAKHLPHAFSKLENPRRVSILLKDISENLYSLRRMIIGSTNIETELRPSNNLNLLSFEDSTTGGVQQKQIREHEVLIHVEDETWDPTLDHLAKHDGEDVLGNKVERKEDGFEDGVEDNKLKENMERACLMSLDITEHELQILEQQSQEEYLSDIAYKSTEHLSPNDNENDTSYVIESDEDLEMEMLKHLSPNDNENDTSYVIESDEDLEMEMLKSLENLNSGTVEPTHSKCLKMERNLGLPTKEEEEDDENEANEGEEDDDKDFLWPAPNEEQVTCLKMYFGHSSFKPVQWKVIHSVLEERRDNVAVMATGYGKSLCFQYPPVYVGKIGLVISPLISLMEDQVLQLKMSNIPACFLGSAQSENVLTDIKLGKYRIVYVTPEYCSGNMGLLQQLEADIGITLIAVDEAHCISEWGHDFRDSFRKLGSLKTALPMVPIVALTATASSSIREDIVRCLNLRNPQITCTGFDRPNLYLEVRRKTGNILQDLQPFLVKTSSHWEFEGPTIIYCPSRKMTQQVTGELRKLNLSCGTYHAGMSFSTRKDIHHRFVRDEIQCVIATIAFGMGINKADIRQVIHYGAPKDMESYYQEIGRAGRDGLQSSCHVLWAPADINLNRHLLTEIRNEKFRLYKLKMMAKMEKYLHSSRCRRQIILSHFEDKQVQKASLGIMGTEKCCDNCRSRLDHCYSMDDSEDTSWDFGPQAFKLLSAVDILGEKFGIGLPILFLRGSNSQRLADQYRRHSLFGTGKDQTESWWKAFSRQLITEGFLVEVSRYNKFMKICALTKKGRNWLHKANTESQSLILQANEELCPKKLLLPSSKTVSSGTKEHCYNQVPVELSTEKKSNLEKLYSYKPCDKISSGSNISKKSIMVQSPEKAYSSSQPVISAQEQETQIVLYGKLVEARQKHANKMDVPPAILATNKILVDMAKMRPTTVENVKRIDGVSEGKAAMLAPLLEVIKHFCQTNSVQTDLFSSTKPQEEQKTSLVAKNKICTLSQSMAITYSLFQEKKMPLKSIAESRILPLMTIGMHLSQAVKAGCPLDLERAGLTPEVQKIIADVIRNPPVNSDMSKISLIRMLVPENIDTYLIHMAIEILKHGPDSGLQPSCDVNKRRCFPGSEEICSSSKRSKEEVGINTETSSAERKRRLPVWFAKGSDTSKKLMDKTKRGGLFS
T1 sequence (Q14191 480-1251): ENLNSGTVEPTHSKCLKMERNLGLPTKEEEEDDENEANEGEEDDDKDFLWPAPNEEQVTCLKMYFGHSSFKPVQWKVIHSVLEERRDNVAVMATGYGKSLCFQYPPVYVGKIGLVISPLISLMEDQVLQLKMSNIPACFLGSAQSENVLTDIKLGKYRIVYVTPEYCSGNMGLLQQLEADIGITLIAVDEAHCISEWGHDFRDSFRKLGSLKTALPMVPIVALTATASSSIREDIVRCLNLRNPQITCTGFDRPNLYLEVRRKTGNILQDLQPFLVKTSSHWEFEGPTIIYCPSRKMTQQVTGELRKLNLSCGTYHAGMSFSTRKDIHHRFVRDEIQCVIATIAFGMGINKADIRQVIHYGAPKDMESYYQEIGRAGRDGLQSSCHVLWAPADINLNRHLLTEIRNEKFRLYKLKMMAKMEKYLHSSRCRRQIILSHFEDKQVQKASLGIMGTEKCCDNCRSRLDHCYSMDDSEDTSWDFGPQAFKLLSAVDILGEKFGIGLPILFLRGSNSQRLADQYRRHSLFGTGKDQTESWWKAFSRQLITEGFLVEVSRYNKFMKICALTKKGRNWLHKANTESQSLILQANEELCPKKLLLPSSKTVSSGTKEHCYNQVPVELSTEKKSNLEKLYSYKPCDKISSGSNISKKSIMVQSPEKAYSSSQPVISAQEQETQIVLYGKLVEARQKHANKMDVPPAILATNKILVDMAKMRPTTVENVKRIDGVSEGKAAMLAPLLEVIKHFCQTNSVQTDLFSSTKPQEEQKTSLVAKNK

`CCc1c(N2CCN(C(=O)c3ncnc(C)c3O)CC2)c(=O)n2nc(-c3ccc4ccnn4c3)nc2n1CC(=O)Nc1ccc(C(F)(F)F)cc1Cl` [WO2025049746, Example 253]: the IC50 in experiment [1] and in experiment [2] was 24 nM each time.

On to `CCc1c(N2CCN(C(=O)c3ncnc(C)c3O)CC2)c(=O)n2nc(-c3ccc4c(c3)CS(=O)(=O)N4C)nc2n1CC(=O)Nc1ccc(C(F)(F)F)cc1Cl` [WO2025049746, Example 279], for which the results for the IC50 in experiment [1] and in experiment [2] were 29 nM and 26 nM, respectively. For `CCc1c(N2CCN(C(=O)c3ncnc(C)c3O)CC2)c(=O)n2nc(-c3ccc4c(c3)OCO4)nc2n1CC(=O)Nc1c(Cl)cc(C(F)(F)F)c2c1CC2` [WO2025049746, Example 380], the IC50 in experiment [1] was 44 nM; in experiment [2], 61 nM. For `CCc1c(N2CCN(C(=O)c3ncnc(C)c3O)CC2)c(=O)n2nc(C3=CCOCC3)nc2n1CC(=O)Nc1ccc(C(F)(F)F)c2scnc12` [WO2025049746, Example 368], in that order: 30 nM and 36 nM. On to `CCc1c(N2CCN(C(=O)c3ncnc(C)c3O)CC2)c(=O)n2nc(-c3ccc4c(c3)CCC4(F)F)nc2n1CC(=O)Nc1ccc(C(F)(F)F)cc1Cl` [WO2025049746, Example 187], for which the IC50 in experiment [1] worked out at 75 nM; in experiment [2], 170 nM. Turning to `CCc1c(N2CCN(C(=O)c3ncnc(C)c3O)CC2)c(=O)n2nc(-c3cc4c(cc3F)[C@@H](OC)CC4)nc2n1CC(=O)Nc1ccc(C(F)(F)F)cc1Cl` [WO2025049746, Example 244], the IC50 in experiment [1] stood at 23 nM; in experiment [2], 24 nM.

Turning to `CCc1c(N2CCN(C(=O)c3ncnc(C)c3O)CC2)c(=O)n2nc(-c3cc(OC)c(OC)c(OC)c3)nc2n1CC(=O)Nc1ccc(C(F)(F)F)cc1Cl` [WO2025049746, Example 268], the half-maximal inhibitory concentration (IC50) in experiment [2] was determined as 29700 nM. As to `CCc1c(N2CCN(C(=O)c3ncnc(C)c3O)CC2)c(=O)n2nc(C3C4COCC43)nc2n1CC(=O)Nc1ccc(C(F)(F)F)c2c1CC2` (stereo not given) [WO2025049746, Example 382], the results for the IC50 in experiment [1] and in experiment [2] were 2300 nM and 2960 nM, respectively.

For `CCc1c(N2CCN(C(=O)c3ncnc(C)c3O)CC2)c(=O)n2nc(-c3cncc4c3COCC4)nc2n1CC(=O)Nc1ccc(C(F)(F)F)cc1Cl` [WO2025049746, Example 161], the IC50 is 84 nM in experiment [1] and 524 nM in experiment [2]. In the case of `CCc1c(N2CCN(C(=O)c3ncnc(C)c3O)CC2)c(=O)n2nc(-c3cccc4c3OCO4)nc2n1CC(=O)Nc1ccc(C(F)(F)F)cc1Cl` [WO2025049746, Example 16], the IC50 in experiment [1] stood at 22.4 nM; in experiment [2], 24.9 nM.

`CCc1c(N2CCN(C(=O)c3ncnc(C)c3O)C[C@@H]2C)c(=O)n2nc(-c3ccc4c(c3)COC4(C)C)nc2n1CC(=O)Nc1ccc(C(F)(F)F)cc1Cl` [WO2025049746, Example 453]: the values for the IC50 in experiment [1] and in experiment [2] were 50 nM and 39 nM, respectively. As to `CCc1c(N2CCN(C(=O)c3ncnc(C)c3O)CC2)c(=O)n2nc(C3=CCOCC3)nc2n1CC(=O)Nc1ccc(SC(F)(F)F)cc1Cl` [WO2025049746, Example 364], the IC50 was 30 nM in experiment [1] and 36 nM in experiment [2]. On to `CCc1c(N2CCN(C(=O)c3ncnc(C)c3O)CC2)c(=O)n2nc(-c3cc4ccnn4cc3C)nc2n1CC(=O)Nc1ccc(C(F)(F)F)cc1Cl` [WO2025049746, Example 243], for which the half-maximal inhibitory concentration (IC50) in experiment [1] turned out to be 34 nM; in experiment [2], 26 nM. As to `CCc1c(N2CCN(C(=O)c3ncnc(C)c3O)CC2)c(=O)n2nc(C3=CCOCC3)nc2n1CC(=O)NC1CC2(C1)CC(F)(F)C2` [WO2025049746, Example 357], the IC50 in experiment [1] amounted to 5200 nM; in experiment [2], 4820 nM. For `CCc1c(N2CCN(C(=O)c3ncnc(C)c3O)CC2)c(=O)n2nc(-c3ccc4c(c3)CCOC4(C)C)nc2n1CC(=O)Nc1ccc(C(F)(F)F)cc1Cl` [WO2025049746, Example 195], in that order: 39 nM and 45 nM. Turning to `CCc1c(N2CCN(C(=O)c3ncnc(C)c3O)CC2)c(=O)n2nc(-c3cnc4c(c3)COC4)nc2n1CC(=O)Nc1ccc(C(F)(F)F)cc1Cl` [WO2025049746, Example 14], the IC50 in experiment [1] was determined as 33.1 nM; in experiment [2], 39.3 nM. With `CCc1c(N2CCN(C(=O)c3nocc3O)CC2)c(=O)n2nc(-c3ccc4c(c3)COC4)nc2n1CC(=O)Nc1ccc(C(F)(F)F)cc1Cl` [WO2025049746, Example 439], the IC50 in experiment [1] is 53 nM; in experiment [2] it was 50 nM. For `CCc1c(N2CCN(C(=O)c3ncnc(C)c3O)CC2)c(=O)n2nc(-c3cccc4c3CCOC4)nc2n1CC(=O)Nc1c(Cl)cc(C(F)(F)F)c2c1CC2` [WO2025049746, Example 389], in that order: 137 nM and 1170 nM.

With `CCc1c(N2CCN(C(=O)c3ncnc(C)c3O)CC2)c(=O)n2nc(-c3ccc4ncn(C)c4c3)nc2n1CC(=O)Nc1ccc(C(F)(F)F)cc1Cl` [WO2025049746, Example 236], the IC50 in experiment [1] and in experiment [2] was 25 nM each time. With `CCc1c(N2CCN(C(=O)c3ncnc(C)c3O)CC2)c(=O)n2nc(C3=CCOCC3)nc2n1CC(=O)Nc1ccc(C(F)(F)C(F)(F)Cl)cc1` [WO2025049746, Example 71], the results for the half-maximal inhibitory concentration (IC50) in experiment [1] and in experiment [2] were 18.8 nM and 26.1 nM, respectively. In the same order, the values of `CCc1c(N2CCN(C(=O)c3ncnc(C)c3O)CC2)c(=O)n2nc(-c3ccc4c(c3)OCCN4)nc2n1CC(=O)Nc1ccc(C(F)(F)F)cc1Cl` [WO2025049746, Example 281] are 31 nM and 27 nM. For `CCc1c(N2CCN(C(=O)c3ncnc(C)c3O)CC2)c(=O)n2nc(-c3ccn4nccc4c3)nc2n1CC(=O)Nc1ccc(C(F)(F)F)cc1Cl` [WO2025049746, Example 176], the figures for the IC50 in experiment [1] and in experiment [2] were 76 nM and 95 nM, respectively. For `CCc1c(N2CCN(C(=O)c3ncnc(C)c3O)CC2)c(=O)n2nc(N(C)C)nc2n1CC(=O)Nc1ccc(C(F)(F)F)cc1C` [WO2025049746, Example 77], in that order: 44.3 nM and 62.1 nM. Consider `CCc1c(N2CCN(C(=O)c3ncnc(C)c3O)CC2)c(=O)n2nc(-c3cnc4nc(C)oc4c3)nc2n1CC(=O)Nc1ccc(C(F)(F)F)cc1Cl` [WO2025049746, Example 282], for which the IC50 in experiment [1] is 53 nM; in experiment [2], 47 nM. In the case of `CCc1c(N2CCC3C2CCCN3C(=O)c2ncnc(C)c2O)c(=O)n2nc(C3=CCOCC3)nc2n1CC(=O)Nc1ccc(C(F)(F)F)cc1Cl` (stereo not given) [WO2025049746, Example 347], the values for the concentration for half-maximal inhibition (IC50) in experiment [1] and in experiment [2] were 84 nM and 132 nM, respectively. Take `CCc1c(N2CCN(C(=O)c3ncnc(C)c3O)CC2)c(=O)n2nc(C3=CCOCC3)nc2n1CC(=O)Nc1ccc(C(F)(F)F)n(C)c1=O` [WO2025049746, Example 367]: the IC50 in experiment [1] came to 8510 nM; in experiment [2], 29700 nM. With `CCc1c(N2CCN(C(=O)c3ncnc(C)c3O)CC2)c(=O)n2nc(C3=CCOCC3)nc2n1CC(=O)Nc1ccc(OC(F)F)cc1Cl` [WO2025049746, Example 370], the figures for the IC50 in experiment [1] and in experiment [2] were 161 nM and 163 nM, respectively. As for `CCc1c(N2CCN(C(=O)c3ncnc(C)c3O)CC2)c(=O)n2nc(-c3ccc4c(c3)CCO4)nc2n1CC(=O)Nc1ccc(C(F)(F)F)cc1Cl` [WO2025049746, Example 11], the IC50 in experiment [1] is 24.6 nM; in experiment [2], 27.3 nM. Regarding `CCc1c(N2CCN(C(=O)c3ncnc(C)c3O)CC2)c(=O)n2nc(N(C)C)nc2n1CC(=O)Nc1ccc(C(F)(F)F)cc1Cl` [WO2025049746, Example 30], the IC50 in experiment [1] is 37.2 nM; in experiment [2], 53 nM. In the same order, the values of `CCc1c(N2CCN(C(=O)c3ncnc(C)c3O)CC2)c(=O)n2nc(-c3ccc4nn(C(C)C)cc4c3)nc2n1CC(=O)Nc1ccc(C(F)(F)F)cc1Cl` [WO2025049746, Example 262] are 31 nM and 30 nM.

Turning to `CCc1c(N2CCN(C(=O)c3ncnc(C)c3O)CC2)c(=O)n2nc(-c3cnn4c3CCC4)nc2n1CC(=O)Nc1ccc(C(F)(F)F)cc1Cl` [WO2025049746, Example 166], the IC50 in experiment [1] turned out to be 14 nM; in experiment [2], 16 nM. For `CCc1c(N2CCN(C(=O)c3ncnc(C)c3O)CC2)c(=O)n2nc(-c3ccc4nn(C5COC5)cc4c3)nc2n1CC(=O)Nc1ccc(C(F)(F)F)cc1Cl` [WO2025049746, Example 332], in that order: 45 nM and 44 nM. Compound `CCc1c(N2CCN(C(=O)c3ncnc(C)c3O)CC2)c(=O)n2nc(-c3ccc4c(c3C)COC4)nc2n1CC(=O)Nc1ccc(C(F)(F)F)cc1Cl` [WO2025049746, Example 196] came in with an IC50 in experiment [2] of 9990 nM. Take `CCc1c(N2CC3CCN(C(=O)c4ncnc(C)c4O)CC32)c(=O)n2nc(C3=CCOCC3)nc2n1CC(=O)Nc1ccc(C(F)(F)F)cc1Cl` (stereo not given) [WO2025049746, Example 346]: in experiment [2], the IC50 was 29700 nM.

Turning to `CCc1c(N2CCN(C(=O)c3ncnc(C)c3O)CC2)c(=O)n2nc(C3=CCOCC3)nc2n1CC(=O)NC12CC(C34CC(C(C)(F)F)(C3)C4)(C1)C2` [WO2025049746, Example 354], in experiment [2], half-maximal inhibition (IC50) was put at 29700 nM. That is a double-digit micromolar value.

For `CCc1c(N2CCN(C(=O)c3ncnc(C)c3O)CC2)c(=O)n2nc(-c3cncc4c3CCOC4)nc2n1CC(=O)Nc1ccc(C(F)(F)F)cc1Cl` [WO2025049746, Example 163], the half-inhibitory concentration (IC50) in experiment [2] stood at 29700 nM. Compound `CCc1c(N2CCN(C(=O)c3ncnc(C)c3O)CC2)c(=O)n2nc(-c3cccc4c3CCOC4)nc2n1CC(=O)Nc1ccc(C(F)(F)F)cc1Cl` [WO2025049746, Example 4] had an IC50 in experiment [1] of 66.2 nM.

`CCc1c(N2CCN(C(=O)C3CCOCC3)CC2)c(=O)n2nc(-c3ccnc(O)n3)nc2n1CC(=O)Nc1ccc(C(F)(F)F)cc1Cl` [WO2025049746, Example 431] came in with an IC50 in experiment [2] of 29700 nM. Turning to `CCc1c(N2CCN(C(=O)c3ncnc(C)c3O)CC2)c(=O)n2nc(C3=CCOCC3)nc2n1CC(=O)NC12CCC(C(F)(F)F)(CC1)OC2` [WO2025049746, Example 358], half-maximal inhibition in experiment [2] (IC50) required 29700 nM. This counts as double-digit micromolar.

In general, IC50 refers to the concentration needed to halve the response being measured. The low end stands for higher potency, the high end for lower potency.
